Results as given in ChEMBL document CHEMBL3085716, “Hytramycins V and I, anti-Mycobacterium tuberculosis hexapeptides from a Streptomyces hygroscopicus strain” (J Nat Prod, 2013).
Values after ≈ are worked out from the molar mass of the structure shown.

What was measured:
[1] = test system: Mycobacterium tuberculosis; assay: Ratio of MIC for Mycobacterium tuberculosis H37Rv under normoxic condition in presence of 10% fetal bovine serum to MIC for Mycobacterium tuberculosis H37Rv under normoxic condition in absence of 10% fetal bovine serum by MABA assay; type: functional
[2] = test system: Mycobacterium tuberculosis; assay: Ratio of MIC for Mycobacterium tuberculosis H37Rv under normoxic condition in presence of 4% bovine serum albumin to MIC for Mycobacterium tuberculosis H37Rv under normoxic condition in absence of 4% bovine serum albumin by MABA assay; type: functional
[3] = test system: Mycobacterium tuberculosis; assay: Antimycobacterial activity against Mycobacterium tuberculosis H37Rv under normoxic condition after 7 days by MABA assay in presence of 10% fetal bovine serum; type: functional; details: 168 h
[4] = test system: Mycobacterium tuberculosis; assay: Antimycobacterial activity against Mycobacterium tuberculosis H37Rv under normoxic condition after 7 days by MABA assay in presence of 4% bovine serum albumin; type: functional; details: 168 h
Streptococcus pneumoniae = assay: Antibacterial activity against Streptococcus pneumoniae ATCC 49619 after 20 hrs; type: functional; details: ATCC 49619, 20 h
Pseudomonas aeruginosa [5] = assay: Antibacterial activity against Pseudomonas aeruginosa ATCC 27853 at 10 ug/ml after 16 hrs; type: functional; details: ATCC 27853, 16 h
Pseudomonas aeruginosa [6] = assay: Antibacterial activity against Pseudomonas aeruginosa ATCC 27853 after 16 hrs; type: functional; details: ATCC 27853, 16 h
Enterococcus faecalis [7] = assay: Antibacterial activity against Enterococcus faecalis ATCC 29212 after 16 hrs; type: functional; details: ATCC 29212, 16 h
Candida albicans [8] = assay: Antifungal activity against Candida albicans ATCC 10231 at 10 ug/ml after 48 hrs; type: functional; details: ATCC 10231, 48 h
Candida albicans [9] = assay: Antifungal activity against Candida albicans ATCC 10231 after 48 hrs; type: functional; details: ATCC 10231, 48 h
Staphylococcus aureus [10] = assay: Antibacterial activity against Staphylococcus aureus ATCC 29213 at 10 ug/ml after 16 hrs; type: functional; details: ATCC 29213, 16 h
Staphylococcus aureus [11] = assay: Antibacterial activity against Staphylococcus aureus ATCC 29213 after 16 hrs; type: functional; details: ATCC 29213, 16 h
Escherichia coli [12] = assay: Antibacterial activity against Escherichia coli ATCC 25922 at 10 ug/ml after 16 hrs; type: functional; details: ATCC 25922, 16 h
Escherichia coli [13] = assay: Antibacterial activity against Escherichia coli ATCC 25922 after 16 hrs; type: functional; details: ATCC 25922, 16 h
Acinetobacter baumannii [14] = assay: Antibacterial activity against Acinetobacter baumannii ATCC BAA-747 at 10 ug/ml after 16 hrs; type: functional; details: ATCC BAA-747, 16 h
Acinetobacter baumannii [15] = assay: Antibacterial activity against Acinetobacter baumannii ATCC BAA-747 after 16 hrs; type: functional; details: ATCC BAA-747, 16 h
[16] = test system: Mycolicibacterium smegmatis; assay: Antimycobacterial activity against Mycobacterium smegmatis ATCC 700084 under normoxic condition after 72 hrs by MABA assay; type: functional; details: ATCC 700084, 72 h
[17] = test system: Mycobacterium tuberculosis; assay: Antimycobacterial activity against Mycobacterium tuberculosis clinical isolate X005319 under normoxic condition after 7 days by MABA assay; type: functional; details: clinical isolate X005319, 168 h
[18] = test system: Mycobacterium tuberculosis; assay: Antimycobacterial activity against Mycobacterium tuberculosis clinical isolate X005282 under normoxic condition after 7 days by MABA assay; type: functional; details: clinical isolate X005282, 168 h
[19] = test system: Mycobacterium tuberculosis; assay: Antimycobacterial activity against Mycobacterium tuberculosis clinical isolate X004439 under normoxic condition after 7 days by MABA assay; type: functional; details: clinical isolate X004439, 168 h
[20] = test system: Mycobacterium tuberculosis; assay: Antimycobacterial activity against Mycobacterium tuberculosis clinical isolate X004244 under normoxic condition after 7 days by MABA assay; type: functional; details: clinical isolate X004244, 168 h
[21] = test system: Mycobacterium tuberculosis; assay: Antimycobacterial activity against Mycobacterium tuberculosis clinical isolate X003899 under normoxic condition after 7 days by MABA assay; type: functional; details: clinical isolate X003899, 168 h
[22] = test system: Mycobacterium tuberculosis; assay: Antimycobacterial activity against Mycobacterium tuberculosis clinical isolate X001354 under normoxic condition after 7 days by MABA assay; type: functional; details: clinical isolate X001354, 168 h
Vero = assay: Cytotoxicity against african green monkey Vero cells; type: cell-based; details: Chlorocebus sabaeus
[23] = test system: Mycobacterium tuberculosis; assay: Antimycobacterial activity against Mycobacterium tuberculosis H37Rv under normoxic condition after 7 days by MABA assay; type: functional
[24] = test system: Streptomyces lavendofoliae; assay: Antibacterial activity against Streptomyces lavendofoliae after 16 hrs; type: functional
Enterococcus faecalis [25] = assay: Antibacterial activity against Enterococcus faecalis ATCC 29212 at 10 ug/ml after 16 hrs; type: functional; details: ATCC 29212, 16 h
[26] = Mycobacterium tuberculosis, H37Rv, 168 h

## CC(C)C[C@@H]1NC(=O)[C@H]2CCCNN2C(=O)[C@H](C)N(C)C(=O)[C@H]2CCCNN2C(=O)[C@@H]2CCCNN2C(=O)[C@@H](C(C)C)NC1=O
[1]
  Ratio: 2
[2]
  Ratio: 2
[3]
  MIC90: 29.2 µg/mL
[4]
  MIC90: 24.1 µg/mL
Streptococcus pneumoniae
  MIC90: 8.4 µg/mL (≈ 13.3 µM)
Pseudomonas aeruginosa [5]
  inhibition at 10 µg/mL: 7%
Pseudomonas aeruginosa [6]
  MIC90: > 10 µg/mL
Enterococcus faecalis [7]
  MIC90: 8 µg/mL (≈ 12.6 µM)
Candida albicans [8]
  inhibition at 10 µg/mL: 17%
Candida albicans [9]
  MIC90: > 10 µg/mL
Staphylococcus aureus [10]
  inhibition at 10 µg/mL: 86%
Staphylococcus aureus [11]
  MIC90: > 10 µg/mL
Escherichia coli [12]
  inhibition at 10 µg/mL: 17%
Escherichia coli [13]
  MIC90: > 10 µg/mL
Acinetobacter baumannii [14]
  inhibition at 10 µg/mL: 37%
Acinetobacter baumannii [15]
  MIC90: > 10 µg/mL
[16]
  MIC90: > 10 µg/mL
[17]
  MIC90: 19.2 µg/mL (≈ 30.3 µM)
[18]
  MIC90: 9.6 µg/mL (≈ 15.1 µM)
[19]
  MIC90: 9.3 µg/mL (≈ 14.7 µM)
[20]
  MIC90: 16.9 µg/mL (≈ 26.7 µM)
[21]
  MIC90: 22.9 µg/mL (≈ 36.1 µM)
[22]
  MIC90: 9.7 µg/mL (≈ 15.3 µM)
Vero
  IC50: 24.2 µg/mL (≈ 38.2 µM)
[23]
  MBC90: >50 µg/mL
[23]; [26]
  MIC90: 11.3 µg/mL (≈ 17.8 µM)

## CC[C@H](C)[C@H]1NC(=O)[C@H](CC(C)C)NC(=O)[C@H]2CCCNN2C(=O)[C@H](C)N(C)C(=O)[C@H]2CCCNN2C(=O)[C@@H]2CCCNN2C1=O
[1]
  Ratio: 2
[2]
  Ratio: 2
[3]
  MIC90: 9.4 µg/mL
[4]
  MIC90: 11.9 µg/mL
Streptococcus pneumoniae
  MIC90: 2.4 µg/mL (≈ 3.7 µM)
Pseudomonas aeruginosa [5]
  inhibition at 10 µg/mL: 10%
Pseudomonas aeruginosa [6]
  MIC90: > 10 µg/mL
Enterococcus faecalis [7]
  MIC90: 3.5 µg/mL (≈ 5.4 µM)
Candida albicans [8]
  inhibition at 10 µg/mL: 0%
Candida albicans [9]
  MIC90: > 10 µg/mL
Staphylococcus aureus [11]
  MIC90: 4.5 µg/mL (≈ 6.95 µM)
Escherichia coli [12]
  inhibition at 10 µg/mL: 2%
Escherichia coli [13]
  MIC90: > 10 µg/mL
Acinetobacter baumannii [14]
  inhibition at 10 µg/mL: 77%
Acinetobacter baumannii [15]
  MIC90: > 10 µg/mL
[16]
  MIC90: > 10 µg/mL
[17]
  MIC90: 4.8 µg/mL (≈ 7.41 µM)
[18]
  MIC90: 4.7 µg/mL (≈ 7.26 µM)
[19]
  MIC90: 4.4 µg/mL (≈ 6.79 µM)
[20]
  MIC90: 4.7 µg/mL (≈ 7.26 µM)
[21]
  MIC90: 4.8 µg/mL (≈ 7.41 µM)
[22]
  MIC90: 4.7 µg/mL (≈ 7.26 µM)
Vero
  IC50: 7.7 µg/mL (≈ 11.9 µM)
[23]
  MBC90: 44.2 µg/mL (≈ 68.2 µM)
[23]; [26]
  MIC90: 6 µg/mL (≈ 9.26 µM)

## CC(C)[C@H]1NC(=O)[C@@H]2C[C@@]3(O)c4ccc(Cl)cc4N[C@H]3N2C(=O)[C@H]2CCCNN2C(=O)[C@H](C)N(C)C(=O)[C@H]2CCCNN2C(=O)[C@@H]2CCCNN2C1=O
[23]; [26]
  MIC: 18.6 µg/mL (≈ 24.6 µM)

## C=C1NC(CC(C)C)C(=O)N[C@H](C(C)C)C(=O)N2NCCCC2C(=O)CC(CC(C)C)C(=O)N2NCCCC2C(=O)OC(C)[C@H]1NC(=O)[C@@H](NC=O)[C@@H](C)CC (some centres undefined)
[24]
  MIC: 3.12 µg/mL (≈ 3.95 µM)

## NCC[C@H](O)C(=O)N[C@@H]1C[C@H](N)[C@@H](O[C@H]2O[C@H](CN)[C@@H](O)[C@H](O)[C@H]2O)[C@H](O)[C@H]1O[C@H]1O[C@H](CO)[C@@H](O)[C@H](N)[C@H]1O [AMIKACIN]
Pseudomonas aeruginosa [6]
  MIC90: 1.8 µg/mL (≈ 3.07 µM)

## C[C@@H]1[C@H](O)[C@@H](C)/C=C/C=C/C=C/C=C/C=C/C=C/C=C/[C@H](O[C@@H]2O[C@H](C)[C@@H](O)[C@H](N)[C@@H]2O)C[C@@H]2O[C@](O)(C[C@@H](O)C[C@@H](O)[C@H](O)CC[C@@H](O)C[C@@H](O)CC(=O)O[C@H]1C)C[C@H](O)[C@H]2C(=O)O [AMPHOTERICIN B]
Candida albicans [9]
  MIC90: 0.4 µg/mL (≈ 0.433 µM)

## CC1(C)S[C@@H]2[C@H](NC(=O)[C@H](N)c3ccccc3)C(=O)N2[C@H]1C(=O)O [AMPICILLIN]
Enterococcus faecalis [25]
  inhibition at 10 µg/mL: 66%
Enterococcus faecalis [7]
  MIC90: > 10 µg/mL
Staphylococcus aureus [11]
  MIC90: 1.2 µg/mL (≈ 3.43 µM)
Escherichia coli [13]
  MIC90: 8.9 µg/mL (≈ 25.5 µM)

## O=C(O)c1cn(C2CC2)c2cc(N3CCNCC3)c(F)cc2c1=O [CIPROFLOXACIN]
Pseudomonas aeruginosa [6]
  MIC90: 0.2 µg/mL (≈ 0.604 µM)
Enterococcus faecalis [7]
  MIC90: 4.9 µg/mL (≈ 14.8 µM)

## CC(C)/N=c1\cc2n(-c3ccc(Cl)cc3)c3ccccc3nc-2cc1Nc1ccc(Cl)cc1 [CLOFAZIMINE]
[16]
  MIC90: 1.1 µg/mL (≈ 2.32 µM)

## CN(C)[C@@H]1C(O)=C(C(N)=O)C(=O)[C@@]2(O)C(O)=C3C(=O)c4c(O)ccc(Cl)c4[C@@H](O)[C@H]3C[C@@H]12 [DEMECLOCYCLINE]
Acinetobacter baumannii [15]
  MIC90: 0.1 µg/mL (≈ 0.215 µM)

## C[C@H]1c2cccc(O)c2C(=O)C2=C(O)[C@]3(O)C(=O)C(C(N)=O)=C(O)[C@@H](N(C)C)[C@@H]3[C@@H](O)[C@@H]21.O [DOXYCYCLINE]
Acinetobacter baumannii [15]
  MIC90: 0.1 µg/mL
